# Laboratory results from patent US20080038728A1, “Quadruple Transformed Cell Line Useful for the Identification of Transport Inhibitors” (priority 2004, published 2008).
# B1: OATP1B1 (Homo sapiens) (protein)
# chain: MDQNQHLNKTAEAQPSENKKTRYCNGLKMFLAALSLSFIAKTLGAIIMKSSIIHIERRFEISSSLVGFIDGSFEIGNLLVIVFVSYFGSKLHRPKLIGIGCFIMGIGGVLTALPHFFMGYYRYSKETNINSSENSTSTLSTCLINQILSLNRASPEIVGKGCLKESGSYMWIYVFMGNMLRGIGETPIVPLGLSYIDDFAKEGHSSLYLGILNAIAMIGPIIGFTLGSLFSKMYVDIGYVDLSTIRITPTDSRWVGAWWLNFLVSGLFSIISSIPFFFLPQTPNKPQKERKASLSLHVLETNDEKDQTANLTNQGKNITKNVTGFFQSFKSILTNPLYVMFVLLTLLQVSSYIGAFTYVFKYVEQQYGQPSSKANILLGVITIPIFASGMFLGGYIIKKFKLNTVGIAKFSCFTAVMSLSFYLLYFFILCENKSVAGLTMTYDGNNPVTSHRDVPLSYCNSDCNCDESQWEPVCGNNGITYISPCLAGCKSSSGNKKPIVFYNCSCLEVTGLQNRNYSAHLGECPRDDACTRKFYFFVAIQVLNLFFSALGGTSHVMLIVKIVQPELKSLALGFHSMVIRALGGILAPIYFGALIDTTCIKWSTNNCGTRGSCRTYNSTSFSRVYLGLSSMLRVSSLVLYIILIYAMKKKYQEKDINASENGSVMDEANLESLNKNKHFVPSAGADSETHC
# notes: expressed in transfected cells; host or cells: MDCKII (canine kidney), co-expressing ABCC2
# B2: OATP2B1 (Homo sapiens) (protein)
# chain: MGPRIGPAGEVPQVPDKETKATMGTENTPGGKASPDPQDVRPSVFHNIKLFVLCHSLLQLAQLMISGYLKSSISTVEKRFGLSSQTSGLLASFNEVGNTALIVFVSYFGSRVHRPRMIGYGAILVALAGLLMTLPHFISEPYRYDNTSPEDMPQDFKASLCLPTTSAPASAPSNGNCSSYTETQHLSVVGIMFVAQTLLGVGGVPIQPFGISYIDDFAHNSNSPLYLGILFAVTMMGPGLAFGLGSLMLRLYVDINQMPEGGISLTIKDPRWVGAWWLGFLIAAGAVALAAIPYFFFPKEMPKEKRELQFRRKVLAVTDSPARKGKDSPSKQSPGESTKKQDGLVQIAPNLTVIQFIKVFPRVLLQTLRHPIFLLVVLSQVCLSSMAAGMATFLPKFLERQFSITASYANLLIGCLSFPSVIVGIVVGGVLVKRLHLGPVGCGALCLLGMLLCLFFSLPLFFIGCSSHQIAGITHQTSAHPGLELSPSCMEACSCPLDGFNPVCDPSTRVEYITPCHAGCSSWVVQDALDNSQVFYTNCSCVVEGNPVLAGSCDSTCSHLVVPFLLLVSLGSALACLTHTPSFMLILRGVKKEDKTLAVGIQFMFLRILAWMPSPVIHGSAIDTTCVHWALSCGRRAVCRYYNNDLLRNRFIGLQFFFKTGSVICFALVLAVLRQQDKEARTKESRSSPAVEQQLLVSGPGKKPEDSRV
# notes: expressed in transfected cells; host or cells: MDCKII (canine kidney) ABCC2 single-transfectant, further transfected with pcDNA3.1/Hygro(-)-OATP2B1
# Experiments:
# [1] = test system: OATP1B1, OATP1B3, and OATP2B1; assay: Uptake (intracellular accumulation) kinetics in ABCC2/OATP1B1/1B3/2B1 quadruple-transfected MDCKII cells; assay type: in vitro ADME, human; details: human, pH 7.3, cell line ABCC2-OATP1B1/1B3/2B1 (quadruple-transfectant); intracellular accumulation of 3H-labeled substrate; read-out: Km
# Protocol: (§1) (a) MDCKII cells were grown on ThinCerts (24-mm diameter, pore size 0.4 μm, pore density 1×10^8 per cm^2) and induced with butyrate as mentioned above. The cells were washed in prewarmed (37° C.) transport buffer (142 mM NaCl, 5 mM KCl, 1 mM KH2PO4, 1.2 mM MgSO4, 1.5 mM CaCl2, 5 mM glucose, and 12.5 mM HEPES, pH 7.3). The ^3H-labeled substrate was dissolved in transport buffer and added either to the apical or to the basolateral compartment at the concentration indicated. After incubation at 37° C., the radioactivity in the opposite compartment was measured by sampling aliquots from the apical or basolateral compartment. Cells were washed 2 times with ice-cold transport buffer containing 0.5% bovine serum albumin and 3 times in ice-cold transport buffer. Intracellular accumulation of radioactivity was calculated by lyzing the cells with 0.2% sodium dodecyl sulfate (SDS) and measuring the radioactivity in the lysate.
# ABCC2 [2] = molecular target: T1, ABCC2 (Homo sapiens, UniProt Q92887); details: MDCK
# T1 sequence (Q92887 whole entry): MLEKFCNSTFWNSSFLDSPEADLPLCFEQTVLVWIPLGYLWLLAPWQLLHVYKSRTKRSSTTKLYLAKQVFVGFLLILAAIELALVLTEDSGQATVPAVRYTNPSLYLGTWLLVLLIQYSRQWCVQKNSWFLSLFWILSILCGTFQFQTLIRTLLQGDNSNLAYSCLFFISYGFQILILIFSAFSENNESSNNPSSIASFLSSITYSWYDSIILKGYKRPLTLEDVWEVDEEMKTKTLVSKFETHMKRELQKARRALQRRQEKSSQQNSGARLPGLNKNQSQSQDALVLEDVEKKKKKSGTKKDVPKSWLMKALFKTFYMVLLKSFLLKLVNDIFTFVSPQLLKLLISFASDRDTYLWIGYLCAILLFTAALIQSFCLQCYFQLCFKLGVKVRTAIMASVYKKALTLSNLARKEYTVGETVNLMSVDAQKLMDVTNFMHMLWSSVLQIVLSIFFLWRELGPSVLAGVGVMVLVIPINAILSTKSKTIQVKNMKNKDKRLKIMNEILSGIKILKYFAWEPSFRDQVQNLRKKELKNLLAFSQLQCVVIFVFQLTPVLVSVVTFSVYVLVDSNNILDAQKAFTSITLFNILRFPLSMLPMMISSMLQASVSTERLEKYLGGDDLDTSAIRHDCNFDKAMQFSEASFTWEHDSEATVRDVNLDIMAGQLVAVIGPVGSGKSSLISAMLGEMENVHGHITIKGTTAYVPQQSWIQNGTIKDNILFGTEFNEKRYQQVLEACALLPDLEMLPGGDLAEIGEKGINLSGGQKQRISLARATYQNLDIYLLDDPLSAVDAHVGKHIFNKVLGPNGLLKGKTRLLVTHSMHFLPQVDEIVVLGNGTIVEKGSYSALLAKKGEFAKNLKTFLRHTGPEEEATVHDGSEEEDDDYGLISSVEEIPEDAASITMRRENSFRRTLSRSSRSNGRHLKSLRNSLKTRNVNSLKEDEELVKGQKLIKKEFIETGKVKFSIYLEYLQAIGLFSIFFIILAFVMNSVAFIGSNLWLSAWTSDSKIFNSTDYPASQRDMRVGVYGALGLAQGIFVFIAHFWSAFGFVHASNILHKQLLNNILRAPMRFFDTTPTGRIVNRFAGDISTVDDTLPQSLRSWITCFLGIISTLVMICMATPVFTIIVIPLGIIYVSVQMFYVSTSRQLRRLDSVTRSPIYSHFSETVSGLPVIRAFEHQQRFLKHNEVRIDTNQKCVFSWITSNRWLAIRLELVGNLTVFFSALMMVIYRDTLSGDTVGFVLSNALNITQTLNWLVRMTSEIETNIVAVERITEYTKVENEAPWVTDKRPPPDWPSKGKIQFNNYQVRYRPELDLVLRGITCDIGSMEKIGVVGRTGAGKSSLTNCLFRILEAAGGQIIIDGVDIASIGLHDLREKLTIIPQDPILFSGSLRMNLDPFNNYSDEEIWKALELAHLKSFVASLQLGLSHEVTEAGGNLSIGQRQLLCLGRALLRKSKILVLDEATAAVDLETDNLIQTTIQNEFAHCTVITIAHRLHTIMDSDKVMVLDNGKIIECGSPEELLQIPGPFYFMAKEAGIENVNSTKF
# Protocol: ATP-dependent transport into inside-out membrane vesicles prepared from MDCKII-ABCC2 single-transfectants (ABCC2, closed circles) or vector-transfected MDCKII cells (Control, open circles) was measured for 1, 3, and 5 min as described in Example 1. Data are means ±SD determined from 3 measurements.
# Transport of estrone 3-sulfate into inside-out membrane vesicles was performed using nick spin columns as described (Keppler et al., 1998). Membrane vesicles were prepared from MDCKII vector-transfected control cells and MDCKII-ABCC2 single transfected cells described by Cui et al. (1999) and Letschert et al. (2005). ATP-dependent transport was determined by subtracting values obtained in the presence of 5′-AMP from those in the presence of ATP.
# OATP1B3 = molecular target: T2, OATP1B3 (Homo sapiens, UniProt Q9NPD5); assay: Uptake (intracellular accumulation) kinetics in ABCC2/OATP1B3 double-transfected MDCKII cells; assay type: in vitro ADME; set-up: expressed in transfected cells; host or cells: MDCKII (canine kidney), co-expressing ABCC2; details: cell line ABCC2-OATP1B3, intracellular accumulation of 3H-labeled substrate
# T2 sequence (Q9NPD5 1-702): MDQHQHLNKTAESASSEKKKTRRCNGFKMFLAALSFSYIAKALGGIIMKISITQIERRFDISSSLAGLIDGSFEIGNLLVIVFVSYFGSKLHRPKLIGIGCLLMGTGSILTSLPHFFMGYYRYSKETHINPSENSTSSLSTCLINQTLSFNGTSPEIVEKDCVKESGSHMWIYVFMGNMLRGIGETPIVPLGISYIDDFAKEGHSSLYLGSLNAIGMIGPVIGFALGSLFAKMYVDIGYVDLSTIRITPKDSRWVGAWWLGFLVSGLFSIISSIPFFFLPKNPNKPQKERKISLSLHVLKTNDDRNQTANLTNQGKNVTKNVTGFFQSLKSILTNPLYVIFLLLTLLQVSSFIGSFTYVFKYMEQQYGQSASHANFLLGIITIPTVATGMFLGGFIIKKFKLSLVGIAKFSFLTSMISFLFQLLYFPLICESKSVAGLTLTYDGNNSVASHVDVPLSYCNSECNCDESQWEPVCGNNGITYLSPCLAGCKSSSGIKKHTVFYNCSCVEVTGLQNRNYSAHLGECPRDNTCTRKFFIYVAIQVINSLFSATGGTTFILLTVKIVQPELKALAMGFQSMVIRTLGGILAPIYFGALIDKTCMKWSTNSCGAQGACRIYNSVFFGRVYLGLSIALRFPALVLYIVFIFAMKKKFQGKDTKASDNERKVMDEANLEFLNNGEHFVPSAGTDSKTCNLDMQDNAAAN
# Protocol: as §1
# OATP2B1 = molecular target: T3, OATP2B1 (Homo sapiens, UniProt O94956); assay: Uptake (intracellular accumulation) kinetics in ABCC2/OATP2B1 double-transfected MDCKII cells; assay type: in vitro ADME; set-up: expressed in transfected cells; host or cells: MDCKII (canine kidney) ABCC2 single-transfectant, further transfected with pcDNA3.1/Hygro(-)-OATP2B1; details: human, MDCKII cells double-transfected with ABCC2 and OATP2B1, pH 7.3; cell line ABCC2-OATP2B1; intracellular accumulation of 3H-labeled substrate; 5-min uptake
# T3 sequence (O94956 1-709): B2 chain
# Protocol: as §1, with “The cells were washed in prewarmed (37° C.) transport buffer (142 mM NaCl, 5 mM KCl, 1 mM KH2PO4, 1.2 mM MgSO4, 1.5 mM CaCl2, 5 mM glucose, and 12.5 mM HEPES, pH 7.3).” left out
# [3] = test system: ABCC2 together with OATP1B1, OATP1B3, and OATP2B1; assay: Transport studies (transcellular transport, intracellular accumulation) in all double- and quadruple-transfected MDCKII cells; assay type: in vitro ADME, human; details: all 3 double-transfected and quadruple-transfected MDCKII cells, 5 μM BSP 15 min, 1 μM E3S, 0.5 μM Fluva in basolateral compartment
# Protocol: as §1
# (b) Transport assays were further carried out as described in Cui et al., Mol. Pharmacol. 60 (2001), 934-43. The apical localization of MRP2 and the basolateral expression of OATP1B1, OATP1B3 and OATP2B1 in the quadruple transfectants was shown by the generation of polar proliferation of the cells after initial growing on Transwell membrane inserts (24 mm diameter, […] pore size, Corning Costar) and by use of confocal laser scanning microscopy. […]
# ABCC2 [4] = molecular target: T1, ABCC2; set-up: expressed in transfected cells; host or cells: MDCKII-ABCC2 single-transfected cells (membrane vesicles); details: BSP: Cui et al., 2001; CCK-8: Letschert et al., 2005; cited from earlier work
# MDCKII cell clones = assay: Transcellular leakage of [3H]inulin across MDCKII cell monolayers; assay type: in vitro ADME, canine; details: 1 μM [3H]inulin in basolateral compartment, apical radioactivity after 30 min; all MDCKII cell clones
# Protocol: The transcellular leakage was determined by addition of 1 μM [^3H]inulin to the basolateral compartment and measurement of the radioactivity appearing in the apical compartment after an incubation period of 30 min. The transcellular leakage was 1-2% of the radioactivity added for all MDCKII cell clones examined in this study.
# [5] = substrate: CC(C)n1c(/C=C/C(O)CC(O)CC(=O)O)c(-c2ccc(F)cc2)c2ccccc21; assay: cells, lysate or membranes named; details: intracellular accumulation of 3H-labeled substrate, 5-min uptake, pH 7.3, 37.0 °C
# [6] = substrate: O=C1OC(c2ccc(O)c(S(=O)(=O)O)c2)(c2ccc(O)c(S(=O)(=O)O)c2)c2c(Br)c(Br)c(Br)c(Br)c21; assay: Uptake (intracellular accumulation) kinetics in ABCC2/OATP1B1 double-transfected MDCKII cells; assay type: in vitro ADME, human; details: other: cell line ABCC2-OATP1B1; intracellular accumulation of 3H-labeled substrate; 5-min uptake; pH 7.3; 37.0 °C
# Protocol: (§2) (a) MDCKII cells were grown on ThinCerts (24-mm diameter, pore size 0.4 μm, pore density 1×10^8 per cm^2) and induced with butyrate as mentioned above. […] The ^3H-labeled substrate was dissolved in transport buffer and added either to the apical or to the basolateral compartment at the concentration indicated. After incubation at 37° C., the radioactivity in the opposite compartment was measured by sampling aliquots from the apical or basolateral compartment. Cells were washed 2 times with ice-cold transport buffer containing 0.5% bovine serum albumin and 3 times in ice-cold transport buffer. Intracellular accumulation of radioactivity was calculated by lyzing the cells with 0.2% sodium dodecyl sulfate (SDS) and measuring the radioactivity in the lysate.
# [7] = substrate: O=C1OC(c2ccc(O)c(S(=O)(=O)O)c2)(c2ccc(O)c(S(=O)(=O)O)c2)c2c(Br)c(Br)c(Br)c(Br)c21; assay: Uptake (intracellular accumulation) kinetics in ABCC2/OATP2B1 double-transfected MDCKII cells; assay type: in vitro ADME, human; details: other: cell line ABCC2-OATP2B1; intracellular accumulation of 3H-labeled substrate; 5-min uptake; pH 7.3; 37.0 °C
# Protocol: as §2
molecule,measurement,setting,value
"CC(C)n1c(/C=C/C(O)CC(O)CC(=O)O)c(-c2ccc(F)cc2)c2ccccc21 (centres unmarked) [Fluvastatin, fluvastatin]",Km,[1],2.3 µM
same,substrate for ABCC2,ABCC2 [2]; human,not a substrate for ABCC2
same,Vmax,OATP1B3,53.6 ± 11.0 pmol · mg protein^−1 · min^−1
same,Km at 5 min,"OATP1B3; human, MDCKII cells double-transfected with ABCC2 and OATP1B3, pH 7.3, 5-min uptake, read-out: Km",7 ± 2.5 µM
same,Km at 5 min,OATP2B1,0.7 µM
C[C@]12CC[C@@H]3c4ccc(OS(=O)(=O)O)cc4CC[C@H]3[C@@H]1CCC2=O [estrone 3-sulfate],"transcellular (vectorial) transport, basolateral to apical",[3],transported transcellularly
same,"transcellular (vectorial) transport, basolateral to apical",[3]; listed as [^3H]estrone 3-sulfate,detected
same,"ABCC2-mediated transport in the presence of ATP, enhanced compared to controls",ABCC2 [2],3.1 fold
cholecystokinin-8 sulfate [CCK-8],Km,ABCC2 [4],8.1 µM
inulin [[^3H]inulin],transcellular leakage,MDCKII cell clones,1-2 % of the radioactivity added
B1,Km,[5]; other: cell line ABCC2-OATP1B1,2.4 ± 0.9 µM
same,Vmax,[5]; other: cell line ABCC2-OATP1B1,43.4 ± 6.7 pmol · mg protein^−1 · min^−1
same,Km,[6],2.4 µM
same,Vmax,[6],41.5 ± 5.2 pmol · mg protein^−1 · min^−1
B2,Km,[5]; other: cell line ABCC2-OATP2B1,0.7 ± 0.3 µM
same,Vmax,[5]; other: cell line ABCC2-OATP2B1,23.0 ± 2.6 pmol · mg protein^−1 · min^−1
same,Km,[7],3.4 µM
